According to patent EP4806890A1, “CRYSTALLINE COMPOUND OR BASIC SALT THEREOF, PREPARATION METHOD THEREFOR, AND USE THEREOF” (Abbisko Therapeutics Co., Ltd., priority 2023, dated 2025):

Columns and labels:
Type in all cases: physicochemical
[1] = Hygroscopic behavior test by dynamic vapor sorption (DVS); settings: for hygroscopicity (in words): DVS, 25 °C
Excerpt: The experimental method of characterizing the crystalline free form of the compound of formula (I) or the basic salt thereof using dynamic vapor sorption (DVS) is as follows: a small amount of the crystalline sample was placed in a precision sample tray that was compatible with the instrument; after the sample was loaded, the sample tray was placed into the instrument for analysis. In this patent, the instruments used for dynamic vapor sorption were all the DVS Intrinsic plus model, and the following experimental parameters were set: nitrogen was used as the carrier gas, a constant temperature of 25 °C was set, the rate of mass percentage change over a unit of time (dm/dt) = 0.002%/min was used as a criterion for determining if equilibrium is reached, and the program humidity change cycle was set to 50-95-0-95-50% RH; within the range of 0-90% RH, a change of 10% RH was taken as a step, and within the range of 90% RH-95% RH, a change of 5% RH was taken as a step.
In the present invention, the hygroscopic weight increases (hygroscopic weight increase/weight before hygroscopy * 100%) of various crystalline forms under various relative humidity conditions were determined using the dynamic vapor sorption method, and the hygroscopicity of different crystalline compounds was evaluated.

[2] = Stability determination (thermal stability and photostability, HPLC purity, appearance, XRPD); settings: for XRPD: crystalline form found
Method: (§1) The stability and solubility of the crystalline free form of the compound of formula (I) or the basic salt thereof of the present application were determined by HPLC.
An appropriate amount of the sample was placed in a vial and left to stand at 50 °C, 80 °C or 50 °C & 75% RH (open) for 7 days to evaluate thermal stability. An appropriate amount of the sample was placed in a transparent vial, […] evaluation under conditions of overall near-ultraviolet energy of 1.2 * 10^6 Lux·hr and no less than 200 W·hr/m2.

[3] = Solubility determination (equilibrium solubility, 24 hrs stirring at room temperature, HPLC); settings: for Equilibrium solubility: target concentration 2000 µg/mL, 24 hrs; for pH24 hrs: pH of the filtrate after 24 hrs
Method: as §1
The desired amount of the compound was weighed into a glass vial, and the desired amount of a vehicle was added. A stir bar was added to the vial, and the mixture was stirred at room temperature for 24 hrs. After 24 hrs, the appearance of the sample was observed. An appropriate amount of the sample was filtered through a PVDF 0.45 µm filter membrane, and the filtrate was collected. The pH value of the filtrate was determined, and the sample was diluted with MeOH. The diluted sample was injected into an HPLC system to determine the concentration.

[4] = Aluminum foil light exposure control, 9.2 days
[5] = Transparent light exposure, 9.2 days
[6] = pH 4.7, 50 mM acetic acid buffer
[7] = pH 6.8, 50 mM phosphoric acid buffer

With `Cc1c(NC(=O)c2cc(C3CC3)c(CN3CCCC[C@H]3C(=O)O)cn2)cccc1-c1cccc(NC(=O)c2cc(C3CC3)c(CN3CCCC[C@H]3C(=O)O)cn2)c1C` [free-form crystalline form D, (2S,2'S)-1,1'-(((((2,2'-dimethyl-[1,1'-biphenyl]-3,3'-diyl)bis(azanediyl))bis(carbonyl))bis(4-cyclopropylpyridine-6,3-diyl))bis(methylene))bis(piperidine-2-carboxylic acid)] the “hygroscopicity (in words)” value [1] was “moderate hygroscopicity”, the “hygroscopicity (in words)” value ([1]; listed as crystalline form D) was “moderately hygroscopic” and the “Hygroscopic weight increase (%)” value ([1]; Relative humidity 0.0 % at 25 °C) was 0.00%. For the same compound, the “Hygroscopic weight increase (%)” value ([1]; Relative humidity 10.0 % at 25 °C) was 0.40%, the “Hygroscopic weight increase (%)” value ([1]; Relative humidity 20.0 % at 25 °C) was 0.85% and the “Hygroscopic weight increase (%)” value ([1]; Relative humidity 30.0 % at 25 °C) was 1.34%. For the same compound, the “Hygroscopic weight increase (%)” value ([1]; Relative humidity 40.0 % at 25 °C) was 1.85%, the “Hygroscopic weight increase (%)” value ([1]; Relative humidity 50.0 % at 25 °C) was 2.30% and the “Hygroscopic weight increase (%)” value ([1]; Relative humidity 60.0 % at 25 °C) was 2.76%. The “Hygroscopic weight increase (%)” value ([1]; Relative humidity 70.0 % at 25 °C) was 3.25%, the “Hygroscopic weight increase (%)” value ([1]; Relative humidity 80.0 % at 25 °C) was 3.79% and the “Hygroscopic weight increase (%)” value ([1]; Relative humidity 90.0 % at 25 °C) was 4.58%. The “crystalline form changes after DVS testing” value ([1]; after DVS testing) was “no crystalline form changes”, the “physical and chemical stability (in words)” value ([2]; 50 °C, 50 °C/75% RH (open), 80 °C for 7 days and photostress for 10 days) was “extremely high physical and chemical stability” and the Appearance ([2]; 50 °C, 7 days) was “White powder”. For the same compound, the “Purity (%)” value ([2]; 50 °C, 7 days) was 98.13%, the Appearance ([2]; 50 °C/75%RH, 7 days) was “White powder” and the “Purity (%)” value ([2]; 50 °C/75%RH, 7 days) was 98.24%. For the same compound, the Appearance ([2]; 80 °C, 7 days) was “White powder”, the “Purity (%)” value ([2]; 80 °C, 7 days) was 97.22% and the Appearance [2, 4] was “White powder”. The “Purity (%)” value [2, 4] was 98.26%, the Appearance ([2]; Initial, 0 days) was “White powder” and the “Purity (%)” value ([2]; Initial, 0 days) was 98.17%. For the same compound, the Appearance [2, 5] was “White powder”, the “Purity (%)” value [2, 5] was 96.06% and the XRPD ([2]; 50 °C, 7 days) was “Free-form crystalline form D”. The XRPD ([2]; 50 °C/75%RH, 7 days) was “Free-form crystalline form D”, the XRPD ([2]; 80 °C, 7 days) was “Free-form crystalline form D” and the XRPD [2, 4] was “Free-form crystalline form D”. For the same compound, the XRPD ([2]; Initial, 0 days) was “Free-form crystalline form D”, the XRPD [2, 5] was “Free-form crystalline form D” and the Equilibrium solubility ([3]; FaSSGF) was 87.01 µg/mL. It also gave an Equilibrium solubility ([3]; FaSSIF) of 78.44 µg/mL, an Equilibrium solubility ([3]; FeSSIF) of 433.75 µg/mL and an Equilibrium solubility ([3]; Water, room temperature) of 51.93 µg/mL. It also gave an Equilibrium solubility ([3]; pH 1.2, HCl 100 mM) of 281.84 µg/mL, an Equilibrium solubility [3, 6] of 47.41 µg/mL and an Equilibrium solubility [3, 7] of 42.11 µg/mL. For the same compound, the pH24 hrs ([3]; FaSSGF) was 1.57, the pH24 hrs ([3]; FaSSIF) was 6.43 and the pH24 hrs ([3]; FeSSIF) was 4.94. It also gave a pH24 hrs ([3]; Water) of 5.82, a pH24 hrs ([3]; pH 1.2, HCl 100 mM) of 1.16 and a pH24 hrs [3, 6] of 4.73. For the same compound, the pH24 hrs [3, 7] was 6.90 and the “solubility (in words)” value ([3]; various pH conditions, buffers and biological medium solutions) was “significantly improved solubility”.
